Laboratory results as given in patent publication US9649392B2, “Central nervous system labelling composition for intranasal administration and labelling method and screening method using central nervous system labelling composition for intranasal administration” (CANON KABUSHIKI KAISHA, priority 2009, dated 2017).

Tested on: central nervous system of the zebrafish
Test: dyeing of the central nervous system of juvenile zebrafish after exposure to dye solution, fluorescence/confocal microscope observation over time
Type: in vivo
Details: 7 dpf juvenile zebrafish; for dyeing of nerve cells of the central nervous system: confocal microscope; for dyed state of the central nervous system (transfer of dyeability with time from nasal cavity via olfactory bulb): left 1 hour, washed, observed at time intervals
Procedure: Distilled water was added to a 1 mg/mL DMSO solution of compound 1 (as expressed by the formula (5) above) to obtain a dye solution 1 containing the compound 1 to a concentration of 200 ng/mL. 1 mL of the dye solution 1 and a 7-day-old (7 dpf) juvenile fish of zebrafish were put into an arbitrarily selected well of a 24-hole multi plate (available from IWAKI) and left there for an hour. Thereafter, the dye solution 1 in the well was removed and an operation of replacing it with 1 mL of distilled water was repeated three times in ten minutes. The elapsed time after the last solution replacing operation was measured and the juvenile fish was taken out from the well when a predetermined time period had elapsed. The juvenile fish was buried in 5% low melting-point agarose gel on a glass slide to restrict any movement and the dyed state of the central nervous system of the zebrafish was observed from a lateral side and the vertex by using fluorescent microscope (MZ16FA: available from Leica). The central nervous system was observed by means of a confocal microscope (Pascal Exciter: available from Zeiss). After the observation, the zebrafish was returned into the well and repeatedly observed thereafter at regular time intervals. […]

SMILES | dyeing of nerve cells of the central nervous system (dye solution 500 ng/mL) | dyed state of the central nervous system (transfer of dyeability with time from nasal cavity via olfactory bulb) (dye solution 500 ng/mL) | dyeing of nerve cells of the central nervous system (dye solution 200 ng/mL) | dyed state of the central nervous system (transfer of dyeability with time from nasal cavity via olfactory bulb) (dye solution 200 ng/mL)
CCN1c2ccc(/C=C/C3=[N+](CC)c4ccc(OC)cc4C34CCCCC4)cc2C2CCCC21 (stereo not drawn) [compound 3] | nerve cells of the central nervous system were also dyed | firstly the nasal cavity, then the olfactory bulb and finally the central nervous system were sequentially dyed |  | 
CCN1/C(=C\C=C\C2=[N+](CC)c3ccccc3C23CCCCC3)C2(CCCCC2)c2ccccc21 [compound 1] |  |  | nerve cells of the central nervous system were also dyed | firstly the nasal cavity, then the olfactory bulb and finally the central nervous system were sequentially dyed
CC/N=c1\cc2oc3cc(NCC)c(C)cc3c(-c3ccccc3C(=O)OCC)c-2cc1C [compound 2] | nerve cells of the central nervous system were also dyed | firstly the nasal cavity, then the olfactory bulb and finally the central nervous system were sequentially dyed |  | 
